Non-standard residues stand in square brackets, D forms with d. Residues, ends and D or L forms follow the SMILES beside them. Ac5c = NC1(C(=O)O)CCCC1
How the values were obtained:
[1] = Rat plasma half-life assay; format: in vitro ADME; details: 37° C., LC-MS, read-out: Rat Plasma T½ (converted)
Description: (§1) B. Human and Rat Plasma Half-Life Assay
(§2) 50 μL was removed at various times, like at 0, 1, 2, 3, 4, 8, 24, 32, 48, 56, 72 hours, mixed with 5 μL formic acid and 150 μL acetonitrile in a microcentrifuge tube, vertexed, and centrifuged for 10 minutes at 10K rpm. The supernatant was transferred to an injection vial and analyzed by LC-MS. The LC-MS system consisted of an API4000 mass spectrometer with an ESI probe. Positive ion mode and full scan detection were used. HPLC separation was carried out on a Luna 3μ C8 (2), 2×30 mm column with a gradient from 90% A to 90% B in 10 minutes at a flow rate of 0.3 ml/min. Buffer A was 1% formic acid in water and buffer B was 1% formic acid acetonitrile.

[2] = Human plasma half-life assay; format: in vitro ADME; details: 37° C., LC-MS, read-out: Human Plasma T½ (converted)
Description: as §1, §2

SMILES	half-life at 0.1 mg/ml [1]	half-life at 0.1 mg/ml [2]
CCCC[C@H](NC(=O)[C@H](C)NC(=O)[C@@H](NC(=O)C1(NC(=O)[C@H](Cc2ccc(O)cc2)NC(=O)[C@H](CC(=O)O)NC(=O)[C@H](CO)NC(=O)[C@@H](NC(=O)[C@H](Cc2ccccc2)NC(=O)[C@@H](NC(=O)CNC(=O)[C@H](CCC(=O)O)NC(=O)[C@H](C)NC(=O)[C@@H](N)Cc2ccc(O)cc2)[C@@H](C)O)[C@@H](C)CC)CCCC1)[C@@H](C)CC)C(=O)N[C@@H](CC(=O)O)C(=O)N[C@@H](CCCCN)C(=O)N[C@H](C(=O)N[C@@H](Cc1c[nH]cn1)C(=O)N[C@@H](CCC(N)=O)C(=O)N[C@@H](CCC(N)=O)C(=O)N[C@@H](CC(=O)O)C(=O)N[C@@H](Cc1ccccc1)C(=O)N[C@H](C(=O)N[C@@H](CC(N)=O)C(=O)N[C@@H](Cc1c[nH]c2ccccc12)C(=O)N[C@@H](CC(C)C)C(=O)N[C@@H](CC(C)C)C(=O)N[C@@H](C)C(=O)N[C@@H](CCC(N)=O)C(=O)N[C@@H](CCCCN)C(=O)NCC(=O)N[C@@H](CCCCN)C(=O)N[C@@H](CCCCN)C(=O)N[C@@H](CC(N)=O)C(=O)N[C@@H](CC(=O)O)C(=O)N[C@@H](Cc1c[nH]c2ccccc12)C(=O)N[C@@H](CCCCN)C(=O)N[C@@H](Cc1c[nH]cn1)C(=O)N[C@@H](CC(N)=O)C(=O)N[C@H](C(=O)N[C@H](C(=O)N[C@@H](CCC(N)=O)C(=O)N[C@@H](Cc1c[nH]cn1)C(=O)O)[C@@H](C)O)[C@@H](C)CC)C(C)C)[C@@H](C)CC [Example 21, (A5c^11, Nle^14, His^43)hGIP(1-43)-OH]	2.8 h	11.1 h
CC[C@H](C)[C@H](NC(=O)[C@H](CCCCN)NC(=O)[C@H](CC(=O)O)NC(=O)[C@H](CCSC)NC(=O)[C@H](C)NC(=O)[C@@H](NC(=O)C1(NC(=O)[C@H](Cc2ccc(O)cc2)NC(=O)[C@H](CC(=O)O)NC(=O)[C@H](CO)NC(=O)[C@@H](NC(=O)[C@H](Cc2ccccc2)NC(=O)[C@@H](NC(=O)CNC(=O)[C@H](CCC(=O)O)NC(=O)[C@H](C)NC(=O)[C@@H](N)Cc2ccc(O)cc2)[C@@H](C)O)[C@@H](C)CC)CCCC1)[C@@H](C)CC)C(=O)N[C@@H](Cc1c[nH]cn1)C(=O)N[C@@H](CCC(N)=O)C(=O)N[C@@H](CCC(N)=O)C(=O)N[C@@H](CC(=O)O)C(=O)N[C@@H](Cc1ccccc1)C(=O)N[C@H](C(=O)N[C@@H](CC(N)=O)C(=O)N[C@@H](Cc1c[nH]c2ccccc12)C(=O)N[C@@H](CC(C)C)C(=O)N[C@@H](CC(C)C)C(=O)N[C@@H](C)C(=O)N[C@@H](CCC(N)=O)C(=O)N[C@@H](CCCCN)C(N)=O)C(C)C [Example 28, (A5c^11)hGIP(1-30)-NH2] (H-YAEGTFISDY[Ac5c]IAMDKIHQQDFVNWLLAQK-NH2; N-terminus assumed)	2.4 h	6.6 h
CC[C@H](C)[C@H](NC(=O)[C@H](CCCCN)NC(=O)[C@H](CC(=O)O)NC(=O)[C@H](CCSC)NC(=O)[C@H](C)NC(=O)[C@@H](NC(=O)C1(NC(=O)[C@H](Cc2ccc(O)cc2)NC(=O)[C@H](CC(=O)O)NC(=O)[C@H](CO)NC(=O)[C@@H](NC(=O)[C@H](Cc2ccccc2)NC(=O)[C@@H](NC(=O)CNC(=O)[C@H](CCC(=O)O)NC(=O)[C@H](C)NC(=O)[C@@H](N)Cc2ccc(O)cc2)[C@@H](C)O)[C@@H](C)CC)CCCC1)[C@@H](C)CC)C(=O)N[C@@H](Cc1c[nH]cn1)C(=O)N[C@@H](CCC(N)=O)C(=O)N[C@@H](CCC(N)=O)C(=O)N[C@@H](CC(=O)O)C(=O)N[C@@H](Cc1ccccc1)C(=O)N[C@H](C(=O)N[C@@H](CC(N)=O)C(=O)N[C@@H](Cc1c[nH]c2ccccc12)C(=O)N[C@@H](CC(C)C)C(=O)N[C@@H](CC(C)C)C(=O)N[C@@H](C)C(=O)N[C@@H](CCC(N)=O)C(=O)N[C@@H](CCCCN)C(=O)N[C@@H](Cc1c[nH]cn1)C(N)=O)C(C)C [Example 29, (A5c^11, His^31)hGIP(1-31)-NH2] (H-YAEGTFISDY[Ac5c]IAMDKIHQQDFVNWLLAQKH-NH2; N-terminus assumed)	7.5 h	7.2 h
CC[C@H](C)[C@H](NC(=O)[C@H](CCCCN)NC(=O)[C@H](CC(=O)O)NC(=O)C1(NC(=O)[C@H](C)NC(=O)[C@@H](NC(=O)C2(NC(=O)[C@H](Cc3ccc(O)cc3)NC(=O)[C@H](CC(=O)O)NC(=O)[C@H](CO)NC(=O)[C@@H](NC(=O)[C@H](Cc3ccccc3)NC(=O)[C@@H](NC(=O)CNC(=O)[C@H](CCC(=O)O)NC(=O)[C@H](C)NC(=O)[C@@H](N)Cc3ccc(O)cc3)[C@@H](C)O)[C@@H](C)CC)CCCC2)[C@@H](C)CC)CCCC1)C(=O)N[C@@H](Cc1c[nH]cn1)C(=O)N[C@@H](CCC(N)=O)C(=O)N[C@@H](CCC(N)=O)C(=O)N[C@@H](CC(=O)O)C(=O)N[C@@H](Cc1ccccc1)C(=O)N[C@H](C(=O)N[C@@H](CC(N)=O)C(=O)N[C@@H](Cc1c[nH]c2ccccc12)C(=O)N[C@@H](CC(C)C)C(=O)N[C@@H](CC(C)C)C(=O)N[C@@H](C)C(=O)N[C@@H](CCC(N)=O)C(=O)N[C@@H](CCCCN)C(N)=O)C(C)C [Example 30, (A5c^11, 14)hGIP(1-30)-NH2] (H-YAEGTFISDY[Ac5c]IA[Ac5c]DKIHQQDFVNWLLAQK-NH2; N-terminus assumed)	13.6 h	6.2 h
CC[C@H](C)[C@H](NC(=O)[C@H](CCCCN)NC(=O)[C@H](CC(=O)O)NC(=O)[C@H](CCSC)NC(=O)[C@H](C)NC(=O)[C@@H](NC(=O)C1(NC(=O)[C@H](Cc2ccc(O)cc2)NC(=O)[C@H](CC(=O)O)NC(=O)[C@H](CO)NC(=O)[C@@H](NC(=O)[C@H](Cc2ccccc2)NC(=O)[C@@H](NC(=O)CNC(=O)[C@H](CCC(=O)O)NC(=O)[C@H](C)NC(=O)[C@@H](N)Cc2ccc(O)cc2)[C@@H](C)O)[C@@H](C)CC)CCCC1)[C@@H](C)CC)C(=O)N[C@@H](Cc1c[nH]cn1)C(=O)N[C@@H](CCC(N)=O)C(=O)N[C@@H](CCC(N)=O)C(=O)N[C@@H](CC(=O)O)C(=O)N[C@@H](Cc1ccccc1)C(=O)N[C@H](C(=O)N[C@@H](CC(N)=O)C(=O)N[C@@H](Cc1c[nH]c2ccccc12)C(=O)N[C@@H](CC(C)C)C(=O)N[C@@H](CC(C)C)C(=O)N[C@@H](C)C(=O)N[C@@H](CCC(N)=O)C(=O)N[C@@H](CCCCN)C(=O)NCC(=O)N[C@@H](CCCCN)C(=O)N[C@@H](CS)C(=O)N[C@@H](CC(N)=O)C(=O)N[C@@H](CC(=O)O)C(=O)N[C@@H](Cc1c[nH]c2ccccc12)C(=O)N[C@@H](CCCCN)C(=O)N[C@@H](Cc1c[nH]cn1)C(=O)N[C@@H](CC(N)=O)C(=O)N[C@H](C(=O)NC1(C(=O)N[C@@H](CCC(N)=O)C(N)=O)CCCC1)[C@@H](C)CC)C(C)C [Example 32, (A5c^11, 41, Cys^33)hGIP(1-42)-NH2]	8.8 h	11.5 h
